Where “and” joins values, the source holds several entries; their conditions need not be identical. Equal values may be shown once.
Test system: 922993-354-T-J3-PDC complex spheroid viability
Test: Anticancer human tumor 922993-354-T-J3-PDC patient-derived endometrial carcinoma cell line growth inhibition [POLQ]
Settings: for viability, T/C: stronger effect = lower value
Experimental: Multicellular complex tumor spheroid response to Polymerase (POL) inhibitors (novobiocin, ART-558, RP6685) in combination with a variety of drugs and investigational agents in selected tumor cell lines
The POL inhibitors (novobiocin, ART-558, and RP6685) were evaluated both individually and in combination with standard of care and investigational anticancer small molecules within a complex spheroid model of solid tumors. . Complex spheroids include a stromal component modeled by human endothelial cells (HUVEC) and fibroblasts modeled by human mesenchymal stem cells (MSCs). The concentration ranges selected for each drug and investigational agent were based upon clinically achievable concentrations if the clinical Cmax of the agent was known.
Compounds. The drugs and investigational agents: novobiocin (NSC847541), ART-558 (NSC835418), RP-6685 (NSC848927), peposertib (NSC802822), ceralasertib (NSC780249), elimusertib (NSC800525), camonsertib (NSC841442), AZD-1390 (NSC803789), olaparib (NSC753686), talazoparib (NSC767125), rucaparib (NSC756644), sotorasib (NSC818433), MRTX-1133 (NSC836407), SN-38 (NSC673596), topotecan (NSC609699), epotoside (NSC141540), doxorubicin (NSC123127), gemcitabine (NSC613327), 5-fluorouracil (NSC19893), paclitaxel (NSC125973), vemurafenib (NSC761431), MSA-2 (NSC828583), SN-011 (NSC837082), adavosertib (NSC754352), prexasertib (NSC758257), carboplatin (NSC241240) and oxaliplatin (NSC266046), were obtained from the National Cancer Institute (NCI) Developmental Therapeutics Program Chemical Repository (21). The FDA-approved anticancer drug set is available from the Developmental Therapeutics Program at https://dtp.cancer.gov/organization/dscb/obtaining/. […] The stock solutions were prepared in dimethyl sulfoxide (DMSO, Sigma-Aldrich, St. Louis, MO, cat. D2650), except for the platinum compounds which were prepared in saline (Quality Biological, Gaithersburg, MD, cat. 114-055-101), at 800-fold the tested concentration and stored at -70 degrees C prior to their use. All drugs and investigational agents were tested over a range starting from a high concentration at or near the clinical Cmax and decreasing in half-log increments. If the clinical Cmax for an agent had not been determined, the highest concentration tested was 10 microM, except for SN-38, which was tested at a high concentration of 1 microM.
Cell Culture. All cells were maintained in an incubator at 37 degrees C and 5% CO2 with 95% humidity. The PDC lines were cultured according to standard operating procedures established by the NCI PDMR (https://pdmr.cancer.gov). Table 3 of the manuscript, lists the cell lines along with the number of the three cell types plated to form the mct-spheroids and media for tumor cell growth. After thawing, all PDC lines, except 997537-175-T-J1-PDC and 415267-285-R-J2-PDC, were cultured in Matrigel-coated flasks prepared with a working solution of 1X Ham's F-12 nutrient mix, without supplementation (Thermo Fisher Scientific, cat. 11765054), 100 U/mL penicillin-streptomycin (Thermo Fisher Scientific, cat. 15140122), and 2.5% Matrigel (Corning Inc., Corning, NY, cat. 354248) for the first three passages. The two PDC lines 997537-175-T-J1-PDC and 415267-285-R-J2-PDC were cultured on uncoated flasks. The 857933-349-R-J2-PDC line was cultured in 6C/Colon 1B media containing advanced DMEM/F-12 (Thermo Fisher Scientific, cat. 12634028), 10 mM HEPES (Thermo Fisher Scientific, cat. 15630080), 1X GlutaMAX supplement (Thermo Fisher Scientific, cat. 35050061), 0.1 mg/mL primocin (InvivoGen, San Diego, CA, cat. ant-pm-2), 10% defined fetal bovine serum, heat inactivated (HyClone Laboratories Inc., Logan, UT, cat. SH30070.03HI), 50% L-WRN conditioned media (ATCC, cat. CRL-3276), 1.25 mM N-Acetyl-L-cysteine (Sigma-Aldrich, cat. A9165), 10 mM nicotinamide (Sigma-Aldrich, cat. N0636), 1X B-27 supplement (Thermo Fisher Scientific, cat. 17504044), 1X N-2 supplement (Thermo Fisher Scientific, cat. […]
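Further: spheroids exposed to the agents for one week.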
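Wherever viability, T/C is given: 100% = DMSO vehicle control wells.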

Compound: CCc1c2c(nc3ccc(O)cc13)-c1cc3c(c(=O)n1C2)COC(=O)[C@]3(O)CC + Nc1ccc(C#CCN(C(=O)Cc2ncc(C(F)(F)F)cc2C(F)(F)F)c2ccc(F)cc2)nn1
- IC50 (curve of first compound, second compound 0.0316 µM): 27.9 nM
- IC50 (curve of first compound, second compound 0.1 µM): 26.2 nM
- IC50 (curve of first compound, second compound 0.316 µM): 31 nM
- IC50 (curve of first compound, second compound 1 µM): 32.2 nM
- IC50 (curve of first compound, second compound 3.16 µM): 22.1 nM
- IC50 (curve of first compound, second compound 10 µM): 14.4 nM
- viability, T/C (second compound 0.0316 µM, first compound 0.00316 µM): 99%
- viability, T/C (second compound 0.0316 µM, first compound 0.01 µM): 91.1%
- viability, T/C (second compound 0.0316 µM, first compound 0.0316 µM): 45.5%
- viability, T/C (second compound 0.0316 µM, first compound 0.1 µM): 20.1%
- viability, T/C (second compound 0.0316 µM, first compound 0.316 µM): 18.8%
- viability, T/C (second compound 0.0316 µM, first compound 1 µM): 26.7%
- viability, T/C (second compound 0.1 µM, first compound 0.00316 µM): 100%
- viability, T/C (second compound 0.1 µM, first compound 0.01 µM): 88.8%
- viability, T/C (second compound 0.1 µM, first compound 0.0316 µM): 43.3%
- viability, T/C (second compound 0.1 µM, first compound 0.1 µM): 17.9%
- viability, T/C (second compound 0.1 µM, first compound 0.316 µM): 19.8%
- viability, T/C (second compound 0.1 µM, first compound 1 µM): 24.8%
- viability, T/C (second compound 0.316 µM, first compound 0.00316 µM): 104%
- viability, T/C (second compound 0.316 µM, first compound 0.01 µM): 92.2%
- viability, T/C (second compound 0.316 µM, first compound 0.0316 µM): 50.3%
- viability, T/C (second compound 0.316 µM, first compound 0.1 µM): 20.3%
- viability, T/C (second compound 0.316 µM, first compound 0.316 µM): 16.8%
- viability, T/C (second compound 0.316 µM, first compound 1 µM): 26.6%
- viability, T/C (second compound 1 µM, first compound 0.00316 µM): 102%
- viability, T/C (second compound 1 µM, first compound 0.01 µM): 88.9%
- viability, T/C (second compound 1 µM, first compound 0.0316 µM): 52.4%
- viability, T/C (second compound 1 µM, first compound 0.1 µM): 18.4%
- viability, T/C (second compound 1 µM, first compound 0.316 µM): 17.7%
- viability, T/C (second compound 1 µM, first compound 1 µM): 25.9%
- viability, T/C (second compound 3.16 µM, first compound 0.00316 µM): 95.6%
- viability, T/C (second compound 3.16 µM, first compound 0.01 µM): 76.3%
- viability, T/C (second compound 3.16 µM, first compound 0.0316 µM): 39.7%
- viability, T/C (second compound 3.16 µM, first compound 0.1 µM): 17.4%
- viability, T/C (second compound 3.16 µM, first compound 0.316 µM): 18.2%
- viability, T/C (second compound 3.16 µM, first compound 1 µM): 27.7%
- viability, T/C (second compound 10 µM, first compound 0.00316 µM): 87%
- viability, T/C (second compound 10 µM, first compound 0.01 µM): 63.9%
- viability, T/C (second compound 10 µM, first compound 0.0316 µM): 16.1%
- viability, T/C (second compound 10 µM, first compound 0.1 µM): 16.3%
- viability, T/C (second compound 10 µM, first compound 0.316 µM): 20.1%
- viability, T/C (second compound 10 µM, first compound 1 µM): 29.6%

Compound: Nc1ccn(C2OC(CO)C(O)C2(F)F)c(=O)n1 (centres undefined)
- viability, T/C (compound 0.0316 µM): 13.5% and 24% and 10.2%
- viability, T/C (compound 0.1 µM): 9.54% and 19.8% and 10.8%
- viability, T/C (compound 0.316 µM): 11.1% and 19.8% and 8.64%
- viability, T/C (compound 1 µM): 12.2% and 17.1% and 9.88%
- viability, T/C (compound 3.16 µM): 9.68% and 23.8% and 9.1%
- viability, T/C (compound 10 µM): 8.4% and 22.9% and 7.7%
- IC50 (curve of compound): < 31.6 nM

Compound: CCc1c2c(nc3ccc(O)cc13)-c1cc3c(c(=O)n1C2)COC(=O)[C@]3(O)CC
- viability, T/C (compound 0.00316 µM): 78.9% and 100% and 95.3%
- viability, T/C (compound 0.01 µM): 51.6% and 79.5% and 29.8%
- viability, T/C (compound 0.0316 µM): 13% and 39.8% and 14.1%
- viability, T/C (compound 0.1 µM): 12.4% and 20.3% and 11.5%
- viability, T/C (compound 0.316 µM): 15.2% and 19.6% and 12.8%
- viability, T/C (compound 1 µM): 16.6% and 28.6% and 14.5%
- IC50 (curve of compound): 10.5 nM and 23 nM and 7.03 nM

Compound: CCCS(=O)(=O)Nc1ccc(F)c(C(=O)c2c[nH]c3ncc(-c4ccc(Cl)cc4)cc23)c1F
- viability, T/C (compound 0.0316 µM): 101% and 107% and 102%
- viability, T/C (compound 0.1 µM): 102% and 103% and 98.4%
- viability, T/C (compound 0.316 µM): 105% and 106% and 94.1%
- viability, T/C (compound 1 µM): 104% and 107% and 109%
- viability, T/C (compound 3.16 µM): 97.1% and 103% and 105%
- viability, T/C (compound 10 µM): 98.9% and 92.4% and 69.4%
- IC50 (curve of compound): > 10000 nM

Compound: COc1cccc(OCCCN)c1-c1cc(Nc2cnc(C#N)cn2)n[nH]1
- viability, T/C (compound 0.00316 µM): 95.3% and 103% (2×)
- viability, T/C (compound 0.01 µM): 89.9% and 104% and 99.4%
- viability, T/C (compound 0.0316 µM): 72% and 101% and 96.2%
- viability, T/C (compound 0.1 µM): 80.4% and 102% (2×)
- viability, T/C (compound 0.316 µM): 16.6% and 92.8% and 90.4%
- viability, T/C (compound 1 µM): 12.3% and 21.8% and 21.6%
- IC50 (curve of compound): 173 nM and 633 nM and 623 nM

Compound: CCc1cc2c(N3CCc4c(cc(Cn5ccnc5)cc4-c4cn(C)nc4C(F)(F)F)C3=O)ccnc2c(OC)n1
- viability, T/C (compound 0.0316 µM): 109% and 106% and 102%
- viability, T/C (compound 0.1 µM): 94.3% and 98% and 103%
- viability, T/C (compound 0.316 µM): 87.5% and 105% and 107%
- viability, T/C (compound 1 µM): 107%
- viability, T/C (compound 3.16 µM): 91.8% and 108% and 103%
- viability, T/C (compound 10 µM): 80.9% and 97.6% and 101%
- IC50 (curve of compound): > 10000 nM

Compound: Cn1ncnc1[C@H]1c2n[nH]c(=O)c3cc(F)cc(c23)N[C@@H]1c1ccc(F)cc1
- viability, T/C (compound 0.000316 µM): 93.8% and 97.3% and 106%
- viability, T/C (compound 0.001 µM): 88.3% and 96.2% and 93.8%
- viability, T/C (compound 0.00316 µM): 94% and 101% and 93.7%
- viability, T/C (compound 0.01 µM): 103% and 100% and 109%
- viability, T/C (compound 0.0316 µM): 94.3% and 98.1% and 96.2%
- viability, T/C (compound 0.1 µM): 79.3% and 83.4% and 61%
- IC50 (curve of compound): > 100 nM
